In US7666850B2, “Drug screens based on the newly found role of dystroglycan proteolysis and restoration of dystroglycan function thereof” (The Regents of the University of California, priority 1999, dated 2010):
Entries after “also recorded” stand apart in the source; their conditions may differ.

How the values were obtained:
[1] = tested on: α-dystroglycan shedding, SCg6 mammary carcinoma cells; experiment: Dystroglycan proteolysis assay: immunoblot detection of α-dystroglycan shed from the cell surface into culture medium; format: cell-based
Description: To ask if shedding was induced by the proteolysis, we treated the cells with a general matrix metaloproteinase (MW) inhibitor, GM6001, to see if α-dystroglycan shedding was inhibited.
Cleavage of a-dystroglycan was detected using cultured cells that cleave and shed dystroglycan from the cell surface. Dystroglycan cleavage was assayed for by immunoblotting to detect the presence of dystroglycan fragments in the medium of cultured cells. Mammary carcinoma cell lines SCg6 or TCL1 were cultured in 10 milliliters (ml) DMEM/F12 medium supplemented with 2% fetal calf serum, 5 μg/ml insulin (Sigma Chemical Co., St. Louis, Mo.), and 50 μg/ml Gentamycin (UCSF Cell Culture Facility). The cells were allowed to grow to 80% confluence in 10 centimeter (cm) plastic tissue culture dishes. The cells were rinsed two times with phosphate-buffered saline (PBS) and the medium was then changed to 10 mls DMEM/F12 medium supplemented with insulin, and Gentamycin, but without added serum. The cells were incubated in this serum-free medium for 48 hrs, then this conditioned medium was harvested and filtered through 0.4 µm filters to remove cells or cell debris. The harvested medium was concentrated from 10 ml to approximately 1.0 ml using a CENTRIPREP-30 concentrator (Amicon, Beverly, Mass.). The concentrated supernatant was added to 1/10th volume of 10× sample buffer (50% glycerol, 100 mM acetic acid, 10% SDS (w/v), 12.5% (v/v) β-mercaptoethanol, bromophenol blue) and heated at 70 degrees Celsius for 15 minutes prior to loading on SDS-polyacrylamide (SDS-PAGE) gels, and subjected to immunoblot analysis. Assays of dystroglycan cleavage and shedding in the presence of the metaloproteinase inhibitor GM6001 (AMS Scientific, Pleasant Hills, Calif.) were performed in the same manner, with varying concentrations of GM6001, or the control C1004 (AMS Scientific), diluted into the serum-free culture medium at the beginning of the 48 hour incubation. To compare treatments, equivalent volumes of conditioned medium from each treated cell population were loaded onto the gel to determine the relative quantities of dystroglycan shed into the medium.
After separation on an 8% SDS-PAGE gels, the proteins were electrophoretically transferred to Immobilon-P membranes (Millipore Corp., Bedford, Mass.) using methanol transfer buffer (20 mM Tris pH 8.3, 150 mM glycine, 0.5% SDS, 20% methanol). Following the transfer, the membranes were blocked for two hours in low salt TBST buffer (20 mM Tris-HCI, pH 8.0, 100 mM NaCl, 1.0% Tween-20 detergent) plus 5% non-fat dried milk (Lucerne). After blocking, the membranes were incubated for 45 minutes with the IIH6 monoclonal antibody (primary antibody against α-dystroglycan, obtained from Dr. Kevin Campbell, University of Iowa) diluted in low salt TBST plus 5% dried milk. The primary antibody was diluted 1:20 from a concentrated (8×) stock of hybridoma supernatant. After incubation with the primary antibody, the membranes were washed with low-salt TBST and incubated 45 minutes with an horse radish peroxidase (HRP) conjugated secondary antibody (anti-IgM Product # A 8786 from Sigma).

HMT-3522-T4 (T4) cells = experiment: 3-dimensional basement membrane (3D-BM) assay, HMT-3522-T4 cells; format: cell-based
Text: Dystroglycan function reduces the growth potential and induces polarity in normal mammary epithelial cells exposed to basement membrane proteins. […] Because dystroglycan function is lost in part by proteolytic shedding, inhibition of dystroglycan shedding can restore or enhance dystroglycan function. Therefore, restoration of dystroglycan function can be used as an assay for inhibitors of the metaloproteinase(s) cleaving and shedding α-dystroglycan. […] The cells were counted and 100,000 cells were resuspended in 0.3-0.5 mls of growth factor-reduced Matrigel (Collaborative Research). This mixture was placed into a 1.5 cm diameter cell culture well, and incubated at 37 degrees Celsius for 30 minutes to induce gelling of the Matrigel. Subsequently, the gelled cell-BM protein mixture was overlayed with growth medium with or without the addition of protease inhibitors or control substances. The cells were cultured at 37 degrees Celsius in a cell culture incubator at 5% carbon dioxide. The growth medium and additives were changed every two days.
The assay was allowed to proceed from 6 to 10 days. […] Measures of polarity and reduced growth potential can be easily optimized by methods existing in the art.

MDA-MD-231 cells = experiment: 3-dimensional basement membrane (3D-BM) assay, MDA-MD-231 cells; format: cell-based
Text: Dystroglycan function reduces the growth potential and induces polarity in normal mammary epithelial cells exposed to basement membrane proteins. […] Because dystroglycan function is lost in part by proteolytic shedding, inhibition of dystroglycan shedding can restore or enhance dystroglycan function. Therefore, restoration of dystroglycan function can be used as an assay for inhibitors of the metaloproteinase(s) cleaving and shedding α-dystroglycan. Carcinoma cell lines, including the HMT-3522-T4 cells and MDA-MD-231 cells, were cultured within the 3-dimensional basement membrane (3-D BM) assay. To accomplish this the cells were trypsinized from routine cell culture, washed once with DMEM/F12 medium, treated with soybean trypsin inhibitor, washed again with DMEM/F12 medium and resuspended in growth medium [DMEM/F12, supplemented with insulin 250 ng/ml (Boehringer Mannheim, Indianapolis, Ind.), 10 μg/ml transferrin (Sigma), 2.6 ng/ml sodium selenite (Collaborative Research), 1.4×10^−6 M hydrocortisone (Collaborative Research), 1×10^−10 M β-estradiol (Sigma),5 μg/ml prolactin (Sigma)]. The cells were counted and 100,000 cells were resuspended in 0.3-0.5 mls of growth factor-reduced Matrigel (Collaborative Research). This mixture was placed into a 1.5 cm diameter cell culture well, and incubated at 37 degrees Celsius for 30 minutes to induce gelling of the Matrigel. Subsequently, the gelled cell-BM protein mixture was overlayed with growth medium with or without the addition of protease inhibitors or control substances. The cells were cultured at 37 degrees Celsius in a cell culture incubator at 5% carbon dioxide. The growth medium and additives were changed every two days.
The assay was allowed to proceed from 6 to 10 days. Over this time, the cells grew from single cells within the gel to form multicellular aggregates with variable characteristics, from polarized and growth arrested (normal phenotype), to disorganized and growing (tumorigenic phenotype), to invasive. […]

MMPs = settings: MPs other than some ADAMs; cited from earlier work

Molecule	shedding of α-dystroglycan (proteolysed form) into the culture supernatant ([1]; 40 μM, FIG. 1B)	shedding of α-dystroglycan in the supernatant across a concentration series ([1]; five different concentrations, FIG. 1C)	Ki ([1]; titration of GM6001, FIG. 1C, 48 h serum-free medium, read-out: Ki (pKi) for inhibition of α-dystroglycan shedding (converted)) [µM]	concentration giving nearly complete inhibition of α-dystroglycan shedding ([1]; titration, FIG. 1C)	effect on tumor cell growth characteristics in the 3D-BM assay (HMT-3522-T4 (T4) cells; 2 μM, FIG. 3B)	tumorigenic phenotype in the 3D-BM assay (HMT-3522-T4 (T4) cells; 40 μM, FIGS. 3C, 3D)	cell growth after removal of the inhibitor (HMT-3522-T4 (T4) cells; removal for 7 days following a ten-day incubation with the inhibitor)	effect on tumor cell growth characteristics in the 3D-BM assay (MDA-MD-231 cells; 2 μM, FIG. 3F)	growth and invasion of MDA-MD-231 cells in the 3D-BM assay (MDA-MD-231 cells; 40 μM, FIGS. 3G, 3H)	concentration required to reduce growth (and invasion) of MDA-MD-231 cells (MDA-MD-231 cells; 6 to 10 days in Matrigel)	GM6001 concentrations that generally inhibit other MP's (MMPs)	reversion of the T4 tumor cell line in the 3D-BM assay (HMT-3522-T4 (T4) cells; 10 μM)
CNC(=O)[C@H](Cc1c[nH]c2ccccc12)NC(=O)[C@@H](CC(=O)NO)CC(C)C [GM6001, N-[2(R)-2(hydroxamidocarbonylmethyl)-4-methylpentanoyl]-L-tryptophane methylamide]	blocked; also recorded: no longer detected	differentially blocked	~10	over 25 μM	No effect	Complete “reversion” of the tumor phenotype; also recorded: caused growth arrest, polarization and reversion to a non-tumorigenic phenotype	did not permit a re-initiation of cell growth	No effect	potently inhibited the growth and invasion	over 20 μM	below 30 μM	
TAPI												revert
